The target in this assay is T1, GABAA receptor α1β1 (β1 subunit) (Rattus norvegicus, UniProt P15431+P62813).
T1 construct: gene Gabrb1; rat α1β1 expressed in Xenopus laevis oocytes; with GABAA receptor α1 subunit
As to the kind of experiment: two-electrode voltage clamp, modulation of GABA EC3-5 current (low efficacy). The class given is cell-based.

From publication PMC6982053, “GABAA Receptor Ligands Often Interact with Binding Sites in the Transmembrane Domain and in the Extracellular Domain—Can the Promiscuity Code Be Cracked?” (International Journal of Molecular Sciences, 2020) come the findings set out here.

pEC50: −log10 of the molar value.

T1 sequence (P15431 26-474): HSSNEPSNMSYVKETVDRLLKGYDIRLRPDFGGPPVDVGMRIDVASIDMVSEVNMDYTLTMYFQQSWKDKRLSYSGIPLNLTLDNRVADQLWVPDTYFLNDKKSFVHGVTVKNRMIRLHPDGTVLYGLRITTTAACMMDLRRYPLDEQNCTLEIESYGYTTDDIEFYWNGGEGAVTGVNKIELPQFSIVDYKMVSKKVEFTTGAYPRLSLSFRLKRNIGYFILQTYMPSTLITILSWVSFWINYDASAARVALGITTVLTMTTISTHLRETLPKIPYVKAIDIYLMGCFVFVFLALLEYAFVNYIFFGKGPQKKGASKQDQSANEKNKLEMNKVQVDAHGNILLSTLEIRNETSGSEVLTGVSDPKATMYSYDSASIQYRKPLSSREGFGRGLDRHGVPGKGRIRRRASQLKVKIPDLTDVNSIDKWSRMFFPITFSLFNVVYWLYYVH
T1 sequence (P62813 28-455): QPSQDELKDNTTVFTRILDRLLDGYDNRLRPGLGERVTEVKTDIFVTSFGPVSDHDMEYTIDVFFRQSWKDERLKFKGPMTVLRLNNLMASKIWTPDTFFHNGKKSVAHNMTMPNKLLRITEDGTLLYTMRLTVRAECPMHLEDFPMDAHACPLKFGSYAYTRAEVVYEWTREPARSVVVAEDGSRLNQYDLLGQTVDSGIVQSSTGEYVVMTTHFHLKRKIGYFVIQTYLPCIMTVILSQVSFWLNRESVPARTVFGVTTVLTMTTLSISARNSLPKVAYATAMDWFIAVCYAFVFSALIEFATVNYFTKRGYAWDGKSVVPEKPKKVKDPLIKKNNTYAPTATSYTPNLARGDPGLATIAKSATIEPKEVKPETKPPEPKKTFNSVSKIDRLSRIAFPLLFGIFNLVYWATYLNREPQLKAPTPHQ

Take `O=C(O)c1[nH]c2ccc(Cl)cc2c1/N=N/c1ccc(Br)cc1` [MTI163, (E)-3-((4-bromophenyl)diazenyl)-5-chloro-1H-indole-2-carboxylic Acid]: the pEC50 was 5.12.
